Results from the supplement of paper PMC10307832.

Tests used:
Assay in all cases: relative viability (nuclei count vs DMSO), 5 days (fraction); higher = more cells survive
[1] = tested on: NCI-H1648
Summary of the method: (§1)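 Lung cancer cell lines in 1536-well plates got either a single drug or a fixed anchor-drug dose together with five library-drug doses (not always all listed) in √10 steps, by pin tool, on the day after seeding. Nuclei were counted after 5 days, and relative viability is the treated-to-vehicle ratio of nuclei counts. Values are medians of duplicate plates.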

[2] = tested on: NCI-H520
Summary of the method: as §1

[3] = tested on: Calu-6
Summary of the method: as §1

[4] = tested on: EBC-1
Summary of the method: as §1

[5] = tested on: IA-LM
Summary of the method: as §1

[6] = tested on: NCI-H1299
Summary of the method: as §1

[7] = tested on: NCI-H1703
Summary of the method: as §1

[8] = tested on: A549
Summary of the method: as §1

| SMILES | relative viability ([1]; first compound 0.04 µM) | relative viability ([1]; first compound 0.1265 µM) | relative viability ([1]; first compound 0.4 µM) | relative viability ([1]; first compound 4 µM) | relative viability ([2]; first compound 0.04 µM) | relative viability ([2]; first compound 0.1265 µM) | relative viability ([2]; first compound 0.4 µM) | relative viability ([2]; first compound 4 µM) | relative viability ([1]; first compound 0.01 µM) | relative viability ([1]; first compound 0.03162 µM) | relative viability ([1]; first compound 0.3162 µM) | relative viability ([2]; first compound 0.01 µM) | relative viability ([2]; first compound 0.03162 µM) | relative viability ([2]; first compound 0.3162 µM) | other results |
| --- | --- | --- | --- | --- | --- | --- | --- | --- | --- | --- | --- | --- | --- | --- | --- |
| C[C@@H]1CN(CC(=O)Nc2ccc3c(c2)Cc2cccc(-c4cc(=O)cc(N5CCOCC5)o4)c2S3)C[C@H](C)O1 + CC(=O)Nc1cccc(-n2c(=O)n(C3CC3)c(=O)c3c(Nc4ccc(I)cc4F)n(C)c(=O)c(C)c32)c1 [Trametinib] (partner 0.02 µM) | 0.484 | 0.435 | 0.474 | 0.527 | 0.675 | 0.629 | 0.626 | 0.556 | – | – | – | – | – | – | – |
| C[C@@H]1CN(CC(=O)Nc2ccc3c(c2)Cc2cccc(-c4cc(=O)cc(N5CCOCC5)o4)c2S3)C[C@H](C)O1 + CC(=O)c1c(C)c2cnc(Nc3ccc(N4CCNCC4)cn3)nc2n(C2CCCC2)c1=O [Palbociclib] (partner 0.5 µM) | 0.265 | 0.322 | 0.373 | 0.26 | 0.219 | 0.259 | 0.172 | 0.215 | – | – | – | – | – | – | – |
| C[C@@H]1CN(CC(=O)Nc2ccc3c(c2)Cc2cccc(-c4cc(=O)cc(N5CCOCC5)o4)c2S3)C[C@H](C)O1 + CC(C)C[C@H](NC(=O)[C@H](Cc1ccccc1)NC(=O)c1cnccn1)B(O)O [Bortezomib] (partner 0.002 µM) | – | – | – | – | 0.906 | 0.671 | 0.247 | 0.584 | – | – | – | – | – | – | relative viability ([3]; first compound 0.04 µM): 1.07; relative viability ([3]; first compound 0.1265 µM): 1.03; relative viability ([3]; first compound 0.4 µM): 1.08; relative viability ([3]; first compound 4 µM): 0.66; relative viability ([4]; first compound 0.04 µM): 0.636; relative viability ([4]; first compound 0.1265 µM): 0.535; relative viability ([4]; first compound 0.4 µM): 0.472; relative viability ([4]; first compound 4 µM): 0.335; relative viability ([5]; first compound 0.04 µM): 0.669; relative viability ([5]; first compound 0.1265 µM): 0.773; relative viability ([5]; first compound 0.4 µM): 0.832; relative viability ([5]; first compound 4 µM): 0.375; relative viability ([6]; first compound 0.04 µM): 1.03; relative viability ([6]; first compound 0.1265 µM): 1.03; relative viability ([6]; first compound 0.4 µM): 1.01; relative viability ([6]; first compound 4 µM): 0.926; relative viability ([7]; first compound 0.04 µM): 0.469; relative viability ([7]; first compound 0.1265 µM): 0.365; relative viability ([7]; first compound 0.4 µM): 0.241; relative viability ([7]; first compound 4 µM): 0.254 |
| C[C@@H]1CN(CC(=O)Nc2ccc3c(c2)Cc2cccc(-c4cc(=O)cc(N5CCOCC5)o4)c2S3)C[C@H](C)O1 + NC(=O)Nc1cc(-c2cccc(F)c2)sc1C(=O)N[C@H]1CCCNC1 [AZD7762] (partner 0.2 µM) | 0.519 | 0.574 | 0.961 | 0.604 | – | – | – | – | – | – | – | – | – | – | relative viability ([7]; first compound 0.04 µM): 0.137; relative viability ([7]; first compound 0.1265 µM): 0.11; relative viability ([7]; first compound 0.4 µM): 0.141; relative viability ([7]; first compound 4 µM): 0.117 |
| C[C@@H]1CN(CC(=O)Nc2ccc3c(c2)Cc2cccc(-c4cc(=O)cc(N5CCOCC5)o4)c2S3)C[C@H](C)O1 + Nc1nc2[nH]cc(CCc3ccc(C(=O)N[C@@H](CCC(=O)O)C(=O)O)cc3)c2c(=O)[nH]1 [Pemetrexed] (partner 0.2 µM) | 0.588 | 0.801 | 0.747 | 0.64 | 0.844 | 0.666 | 0.534 | 0.492 | – | – | – | – | – | – | – |
| C[C@@H]1CN(CC(=O)Nc2ccc3c(c2)Cc2cccc(-c4cc(=O)cc(N5CCOCC5)o4)c2S3)C[C@H](C)O1 + Nc1ncn([C@H]2C[C@H](O)[C@@H](CO)O2)c(=O)n1 [Decitabine] (partner 2 µM) | 0.41 | 0.515 | 0.591 | 0.434 | 0.613 | 0.484 | 0.449 | 0.488 | – | – | – | – | – | – | relative viability ([8]; first compound 0.04 µM): 0.24; relative viability ([8]; first compound 0.1265 µM): 0.227; relative viability ([8]; first compound 0.4 µM): 0.254; relative viability ([8]; first compound 4 µM): 0.31 |
| C[C@@H]1CN(CC(=O)Nc2ccc3c(c2)Cc2cccc(-c4cc(=O)cc(N5CCOCC5)o4)c2S3)C[C@H](C)O1 + O=C(CCCCCCC(=O)Nc1ccccc1)NO [Vorinostat] (partner 1 µM) | 0.505 | 0.605 | 0.644 | 0.528 | 0.776 | 0.677 | 0.656 | 0.562 | – | – | – | – | – | – | relative viability ([5]; first compound 0.04 µM): 0.819; relative viability ([5]; first compound 0.1265 µM): 0.933; relative viability ([5]; first compound 0.4 µM): 1.09; relative viability ([5]; first compound 4 µM): 0.897 |
| CC(C)Oc1cc(Nc2nc(N[C@@H](C)c3ccc(F)cn3)ncc2Cl)n[nH]1 [AZ23] + CC(=O)Nc1cccc(-n2c(=O)n(C3CC3)c(=O)c3c(Nc4ccc(I)cc4F)n(C)c(=O)c(C)c32)c1 [Trametinib] (partner 0.02 µM) | – | – | – | – | – | – | – | – | 0.374 | 0.427 | 0.314 | 0.853 | 0.707 | 0.587 | – |
| CC(C)Oc1cc(Nc2nc(N[C@@H](C)c3ccc(F)cn3)ncc2Cl)n[nH]1 [AZ23] + CC(=O)c1c(C)c2cnc(Nc3ccc(N4CCNCC4)cn3)nc2n(C2CCCC2)c1=O [Palbociclib] (partner 0.5 µM) | – | – | – | – | – | – | – | – | 0.227 | 0.208 | 0.23 | 0.236 | 0.193 | 0.177 | – |
| CC(C)Oc1cc(Nc2nc(N[C@@H](C)c3ccc(F)cn3)ncc2Cl)n[nH]1 [AZ23] + NC(=O)Nc1cc(-c2cccc(F)c2)sc1C(=O)N[C@H]1CCCNC1 [AZD7762] (partner 0.2 µM) | – | – | – | – | – | – | – | – | 0.659 | 0.518 | 0.762 | – | – | – | relative viability ([7]; first compound 0.03162 µM): 0.126; relative viability ([7]; first compound 0.3162 µM): 0.154 |
| CC(C)Oc1cc(Nc2nc(N[C@@H](C)c3ccc(F)cn3)ncc2Cl)n[nH]1 [AZ23] + Nc1nc2[nH]cc(CCc3ccc(C(=O)N[C@@H](CCC(=O)O)C(=O)O)cc3)c2c(=O)[nH]1 [Pemetrexed] (partner 0.2 µM) | – | – | – | – | – | – | – | – | 0.706 | 0.632 | 0.807 | 0.678 | 0.759 | 0.615 | – |
| CC(C)Oc1cc(Nc2nc(N[C@@H](C)c3ccc(F)cn3)ncc2Cl)n[nH]1 [AZ23] + Nc1ncn([C@H]2C[C@H](O)[C@@H](CO)O2)c(=O)n1 [Decitabine] (partner 2 µM) | – | – | – | – | – | – | – | – | 0.546 | 0.534 | 0.509 | 0.634 | 0.524 | 0.418 | relative viability ([8]; first compound 0.01 µM): 0.3; relative viability ([8]; first compound 0.03162 µM): 0.325; relative viability ([8]; first compound 0.3162 µM): 0.281 |
| CC(C)Oc1cc(Nc2nc(N[C@@H](C)c3ccc(F)cn3)ncc2Cl)n[nH]1 [AZ23] + O=C(CCCCCCC(=O)Nc1ccccc1)NO [Vorinostat] (partner 1 µM) | – | – | – | – | – | – | – | – | 0.373 | 0.567 | 0.316 | 0.794 | 0.754 | 0.609 | relative viability ([5]; first compound 0.01 µM): 0.895; relative viability ([5]; first compound 0.03162 µM): 1.05; relative viability ([5]; first compound 0.3162 µM): 1.06 |
| COc1cc(N2CCC(C(N)=O)CC2)ccc1Nc1nc(N)c(Cl)c(Nc2ccccc2S(=O)(=O)C(C)C)n1 [HG-5-88-01] + CC(=O)Nc1cccc(-n2c(=O)n(C3CC3)c(=O)c3c(Nc4ccc(I)cc4F)n(C)c(=O)c(C)c32)c1 [Trametinib] (partner 0.02 µM) | 0.485 | 0.459 | 0.417 | 0.316 | 0.568 | 0.831 | 0.617 | 0.634 | – | – | – | – | – | – | relative viability ([1]; first compound 1.265 µM): 0.352; relative viability ([2]; first compound 1.265 µM): 0.74 |
